The target in this assay is T1, human full-length MKNK1 (Homo sapiens, UniProt Q9BUB5, T385D).
T1 construct: GST (N); purchased Carna Biosciences 02-145; host or cells: insect cells (baculovirus expression system)
T1 sequence (Q9BUB5 1-424 isoform Q9BUB5-2 T344D): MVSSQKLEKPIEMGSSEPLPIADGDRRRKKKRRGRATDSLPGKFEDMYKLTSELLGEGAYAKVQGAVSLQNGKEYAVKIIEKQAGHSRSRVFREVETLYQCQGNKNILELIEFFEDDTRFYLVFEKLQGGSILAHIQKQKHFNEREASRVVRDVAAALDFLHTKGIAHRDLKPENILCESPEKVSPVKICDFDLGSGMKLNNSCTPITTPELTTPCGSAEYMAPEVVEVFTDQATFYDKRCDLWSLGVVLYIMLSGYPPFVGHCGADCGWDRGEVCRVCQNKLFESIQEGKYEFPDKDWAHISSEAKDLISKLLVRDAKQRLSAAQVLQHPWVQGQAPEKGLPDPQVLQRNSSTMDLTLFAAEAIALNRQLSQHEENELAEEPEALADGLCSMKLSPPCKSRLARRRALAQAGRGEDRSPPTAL
Description: MKNK1 kinase high ATP assay (TR-FRET). The format is biochemical. As to conditions: 2 mM ATP, after preincubation with MKNK1; read-out: MKNK1 IC50 (MKNK1 high ATP). Summed up:
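Compound was preincubated 15 min at 22° C. with MKNK1 in 50 mM HEPES pH 7.5, 5 mM MgCl2, 1.0 mM DTT, then the reaction ran 30 min at 22° C. with 2 mM ATP and 0.06 μM biotinylated peptide (final).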
With `CCOc1cc2[nH]ncc2cc1Nc1ncnc2sc3c(c12)CCC(C(=O)N(CC)CCC#N)C3` (racemic) [Example 242, (RS)—N-(2-Cyanoethyl)-4-[(6-ethoxy-1H-indazol-5-yl)amino]-N-ethyl-5,6,7,8-tetrahydro[1]benzothieno[2,3-d]pyrimidine-7-carboxamide], the IC50 stood at 0.3 nM.
Next, `CCOc1cc2[nH]ncc2cc1Nc1ncnc2sc3c(c12)CCC(C(=O)N(C)CCOC)C3` (racemic) [Example 245, (RS)-4-[(6-Ethoxy-1H-indazol-5-yl)amino]-N-(2-methoxyethyl)-N-methyl-5,6,7,8-tetrahydro[1]benzothieno[2,3-d]pyrimidine-7-carboxamide]: 0.7 nM.
For `CCOc1cc2[nH]ncc2cc1Nc1ncnc2sc3c(c12)CCC(C(=O)N1CCN(CC2CC2)CC1)C3` (racemic) [Example 247, (RS)-[4-(Cyclopropylmethyl)piperazin-1-yl]{4-[(6-ethoxy-1H-indazol-5-yl)amino]-5,6,7,8-tetrahydro[1]benzothieno[2,3-d]pyrimidin-7-yl}methanone], the IC50 is 0.3 nM.
On to `CN(C)C(=O)C1CCc2c(sc3ncnc(Nc4cc5cn[nH]c5cc4OC(F)(F)F)c23)C1` (racemic) [Example 249, (RS)—N,N-Dimethyl-4-{[6-(trifluoromethoxy)-1H-indazol-5-yl]amino}-5,6,7,8-tetrahydro[1]benzothieno[2,3-d]pyrimidine-7-carboxamide], for which the IC50 was 15 nM.
Consider `COc1cc2[nH]ncc2cc1Nc1ncnc2sc3c(c12)CCC(C(=O)N1CC2(COC2)C1)C3` (racemic) [Example 250, (RS)-{4-[(6-Methoxy-1H-indazol-5-yl)amino]-5,6,7,8-tetrahydro[1]benzothieno[2,3-d]pyrimidin-7-yl}(2-oxa-6-azaspiro[3.3]hept-6-yl)methanone], for which the IC50 turned out to be 0.5 nM.
Consider `CN(C)C(=O)C1CCc2c(sc3ncnc(Nc4cc5cn[nH]c5cc4N(C)C)c23)C1` (racemic) [Example 251, (RS)-4-{[6-(Dimethylamino)-1H-indazol-5-yl]amino}-N,N-dimethyl-5,6,7,8-tetrahydro[1]benzothieno[2,3-d]pyrimidine-7-carboxamide], for which the IC50 is 0.2 nM.
For the molecule `CCOc1cc2[nH]ncc2cc1Nc1ncnc2sc3c(c12)CCC(C(=O)N(CCOC)CCOC)C3` (racemic) [Example 252, (RS)-4-[(6-Ethoxy-1H-indazol-5-yl)amino]-N,N-bis(2-methoxyethyl)-5,6,7,8-tetrahydro[1]benzothieno[2,3-d]pyrimidine-7-carboxamide], the IC50 was 2.2 nM.
For `CCCN(C)C(=O)C1CCc2c(sc3ncnc(Nc4cc5cn[nH]c5cc4OCC)c23)C1` (racemic) [Example 253, (RS)-4-[(6-Ethoxy-1H-indazol-5-yl)amino]-N-methyl-N-propyl-5,6,7,8-tetrahydro[1]benzothieno[2,3-d]pyrimidine-7-carboxamide], the IC50 amounted to 1.2 nM.
Next, `CCOc1cc2[nH]ncc2cc1Nc1ncnc2sc3c(c12)CCC(C(=O)N(C)C)C3` (racemic) [Example 254, (RS)-4-[(6-Ethoxy-1H-indazol-5-yl)amino]-N,N-dimethyl-5,6,7,8-tetrahydro[1]benzothieno[2,3-d]pyrimidine-7-carboxamide]: 1.6 nM; `CCOc1cc2[nH]ncc2cc1Nc1ncnc2sc3c(c12)CCC(C(=O)N1CC=CC1)C3` (racemic) [Example 255, (RS)-2,5-Dihydro-1H-pyrrol-1-yl{4-[(6-ethoxy-1H-indazol-5-yl)amino]-5,6,7,8-tetrahydro[1]benzothieno[2,3-d]pyrimidin-7-yl}methanone]: 0.3 nM.
Turning to `CCOc1cc2[nH]ncc2cc1Nc1ncnc2sc3c(c12)CCC(C(=O)N(C)CC(O)CO)C3` (racemic) [Example 257, (7RS)—N-[(2RS)-2,3-Dihydroxypropyl]-4-[(6-ethoxy-1H-indazol-5-yl)amino]-N-methyl-5,6,7,8-tetrahydro[1]benzothieno[2,3-d]pyrimidine-7-carboxamide], the IC50 came out at 0.6 nM.
On to `CCOc1cc2[nH]ncc2cc1Nc1ncnc2sc3c(c12)CCC(C(=O)N1CCC(N(C)C)C1)C3` (racemic) [Example 258, [(3RS)-3-(Dimethylamino)pyrrolidin-1-yl]{(7RS)-4-[(6-ethoxy-1H-indazol-5-yl)amino]-5,6,7,8-tetrahydro[1]benzothieno[2,3-d]pyrimidin-7-yl}methanone], for which the IC50 came to 0.4 nM.
On to `CC(C)Oc1cc2[nH]ncc2cc1Nc1ncnc2sc3c(c12)CCC(C(=O)N1CC2(CCO2)C1)C3` (racemic) [Example 259, (RS)-{4-[(6-Isopropoxy-1H-indazol-5-yl)amino]-5,6,7,8-tetrahydro[1]benzothieno[2,3-d]pyrimidin-7-yl}(1-oxa-6-azaspiro[3.3]hept-6-yl)methanone], for which the half-maximal inhibitory concentration (IC50) stood at 1.9 nM.
As for `COc1cc2[nH]ncc2cc1Nc1ncnc2sc3c(c12)CCC(C(=O)N1CC2(CCO2)C1)C3` (racemic) [Example 260, (RS)-{4-[(6-Methoxy-1H-indazol-5-yl)amino]-5,6,7,8-tetrahydro[1]benzothieno[2,3-d]pyrimidin-7-yl}(1-oxa-6-azaspiro[3.3]hept-6-yl)methanone], the IC50 came out at 0.7 nM.
On to `CC(C)Oc1cc2[nH]ncc2cc1Nc1ncnc2sc3c(c12)CCC(C(=O)N1CCC2(CC2)C1)C3` (racemic) [Example 261, (RS)-5-Azaspiro[2.4]hept-5-yl{4-[(6-isopropoxy-1H-indazol-5-yl)amino]-5,6,7,8-tetrahydro[1]benzothieno[2,3-d]pyrimidin-7-yl}methanone], for which the IC50 is 2.3 nM.
Next, `CCOc1cc2[nH]ncc2cc1Nc1ncnc2sc3c(c12)CCC(C(=O)N1CC2(CCS2(=O)=O)C1)C3` (racemic) [Example 263, (RS)-(1,1-Dioxido-1-thia-6-azaspiro[3.3]hept-6-yl){4-[(6-ethoxy-1H-indazol-5-yl)amino]-5,6,7,8-tetrahydro[1]benzothieno[2,3-d]pyrimidin-7-yl}methanone]: 3.3 nM; `COc1cc2[nH]ncc2cc1Nc1ncnc2sc3c(c12)CCC(C(=O)N1CC2(CCS2(=O)=O)C1)C3` (racemic) [Example 264, (RS)-(1,1-Dioxido-1-thia-6-azaspiro[3.3]hept-6-yl){4-[(6-methoxy-1H-indazol-5-yl)amino]-5,6,7,8-tetrahydro[1]benzothieno[2,3-d]pyrimidin-7-yl}methanone]: 2.2 nM; `CCOc1cc2[nH]ncc2cc1Nc1ncnc2sc3c(c12)CCC(C(=O)N1CCC(C#N)C1)C3` (racemic) [Example 265, (3RS)-1-({(7RS)-4-[(6-Ethoxy-1H-indazol-5-yl)amino]-5,6,7,8-tetrahydro[1]benzothieno[2,3-d]pyrimidin-7-yl}carbonyl)pyrrolidine-3-carbonitrile]: 1.2 nM.
Next, `CN(C)C(=O)C1CCc2c(sc3ncnc(Nc4cc5cn[nH]c5cc4OCCCl)c23)C1` (racemic) [Example 266, (RS)-4-{[6-(2-Chloroethoxy)-1H-indazol-5-yl]amino}-N,N-dimethyl-5,6,7,8-tetrahydro[1]benzothieno[2,3-d]pyrimidine-7-carboxamide]: 1.2 nM; `CN(C)C(=O)C1CCc2c(sc3ncnc(Nc4cc5cn[nH]c5cc4OCCCCl)c23)C1` (racemic) [Example 267, (RS)-4-{[6-(3-Chloropropoxy)-1H-indazol-5-yl]amino}-N,N-dimethyl-5,6,7,8-tetrahydro[1]benzothieno[2,3-d]pyrimidine-7-carboxamide]: 2.2 nM.
For the molecule `CCOc1cc2[nH]ncc2cc1Nc1ncnc2sc3c(c12)CCC(C(=O)N(C)CCNC(=O)OC(C)(C)C)C3` (racemic) [Example 268, (RS)-tert-Butyl {2-[({4-[(6-ethoxy-1H-indazol-5-yl)amino]-5,6,7,8-tetrahydro[1]benzothieno[2,3-d]pyrimidin-7-yl}carbonyl)(methyl)amino]ethyl}carbamate], the IC50 worked out at 0.4 nM.
As for `CCCOc1cc2[nH]ncc2cc1Nc1ncnc2sc3c(c12)CCC(C(=O)N(C)C)C3` (racemic) [Example 269, (RS)—N,N-Dimethyl-4-[(6-propoxy-1H-indazol-5-yl)amino]-5,6,7,8-tetrahydro[1]benzothieno[2,3-d]pyrimidine-7-carboxamide], the IC50 amounted to 2.7 nM.
Take `CCOc1cc2[nH]ncc2cc1Nc1ncnc2sc3c(c12)CCC(C(=O)N1CCN2CCCCC2C1)C3` (racemic) [Example 270, {(7RS)-4-[(6-Ethoxy-1H-indazol-5-yl)amino]-5,6,7,8-tetrahydro[1]benzothieno[2,3-d]pyrimidin-7-yl}[(9aRS)-octahydro-2H-pyrido[1,2-a]pyrazin-2-yl]methanone]: the IC50 was determined as 0.4 nM.
Take `CCOc1cc2[nH]ncc2cc1Nc1ncnc2sc3c(c12)CCC(C(=O)N(C)CCN)C3` (racemic) [Example 271, (RS)-5-({7-[(2-Ammonioethyl)(methyl)carbamoyl]-5,6,7,8-tetrahydro[1]benzothieno[2,3-d]pyrimidin-4-yl}amino)-6-ethoxy-1H-indazol-1-ium bis(trifluoroacetate)]: the IC50 is 0.4 nM.
Next, `COc1cc2[nH]ncc2cc1Nc1ncnc2sc3c(c12)CCC(C(=O)N1CC(O)C1)C3` (racemic) [Example 272, (RS)-(3-Hydroxyazetidin-1-yl){4-[(6-methoxy-1H-indazol-5-yl)amino]-5,6,7,8-tetrahydro[1]benzothieno[2,3-d]pyrimidin-7-yl}methanone]: 0.6 nM; `CCOc1cc2[nH]ncc2cc1Nc1ncnc2sc3c(c12)CCC(C(=O)N(CC)CCOC)C3` (racemic) [Example 273, (RS)-4-[(6-Ethoxy-1H-indazol-5-yl)amino]-N-ethyl-N-(2-methoxyethyl)-5,6,7,8-tetrahydro[1]benzothieno[2,3-d]pyrimidine-7-carboxamide]: 0.2 nM.

The record behind these values is patent US9540392B2, “Thienopyrimidines” (BAYER PHARMA AKTIENGESELLSCHAFT, priority 2012, dated 2017).
